Measurements published in patent publication US12605423B2, “Peptide inhibitors targeting methyltransfer mechanism of SARS-CoV-2” (United Arab Emirates University, priority 2021, dated 2026).
Values after ≈ are worked out from the molar mass of the structure shown. “Also recorded” adds a separate entry of the source.

Key:
IL-6 = assay type: cell-based; details: 10 μM peptide, versus PBS control; for IL-6 induction: NCIH1792 (H1792) human lung cells
in vitro = details: human, Cytotoxic Concentration (CC50), Caco-2 cells

## CC[C@H](C)[C@H](NC(=O)[C@H](Cc1c[nH]cn1)NC(=O)[C@H](CS)NC(=O)[C@H](CCCNC(=N)N)NC(=O)[C@H](CS)NC(=O)[C@H](Cc1ccc(O)cc1)NC(=O)[C@H](CC(C)C)NC(=O)[C@H](CS)NC(=O)[C@H](CS)NC(=O)[C@H](CO)NC(=O)[C@H](C)NC(=O)CNC(=O)CNC(=O)[C@H](Cc1ccccc1)NC(=O)CNC(=O)[C@H](CO)NC(=O)CNC(=O)[C@H](CCCNC(=N)N)NC(=O)[C@H](CCCNC(=N)N)NC(=O)[C@H](CCCNC(=N)N)NC(=O)[C@H](CCC(N)=O)NC(=O)[C@H](CCCNC(=N)N)NC(=O)[C@H](CCCNC(=N)N)NC(=O)[C@H](CCCCN)NC(=O)[C@H](CCCCN)NC(=O)[C@H](CCCNC(=N)N)NC(=O)CNC(=O)[C@H](Cc1ccc(O)cc1)NC(C)=O)C(=O)N[C@@H](CC(=O)O)C(=O)N[C@@H](Cc1c[nH]cn1)C(=O)N1CCC[C@H]1C(=O)N[C@@H](CC(N)=O)C(=O)N1CCC[C@H]1C(=O)N[C@@H](CCCCN)C(=O)NCC(=O)N[C@@H](Cc1ccccc1)C(=O)N[C@@H](CS)C(=O)N[C@@H](CC(=O)O)C(=O)N[C@@H](CC(C)C)C(=O)N[C@@H](CCCCN)C(=O)NCC(=O)N[C@@H](CCCCN)C(=O)N[C@@H](Cc1ccc(O)cc1)C(N)=O [Peptide P1]
IL-6; NCIH1792 (H1792) cells
  stimulation of the intrinsic secretion of IL-6: more than 4 fold
IL-6
  IL-6 induction: strongly increased IL-6 secretion; also recorded: profound induction of IL-6 secretion
In vitro
  CC50: 11 µg/mL (≈ 2.19 µM)

## YGRKKRRQRRRGSG [TAT sequence, reference compound]
IL-6
  IL-6 induction: no increase in IL-6
